Here are results for 1 compound from US20170107179A1 (Tetraphase Pharmaceuticals, Inc., priority 2010, published 2017).

The subject of the test is Gram-negative and Gram-positive organisms (clinical isolates). The test can be described thus: Broth microdilution MIC against clinical isolates (CLSI M7-A8), Table 9. Format: cell-based. For orientation: Dilution methods test growth across graded concentrations, often in twofold steps.

Structures are written as SMILES.

With `CN(C)c1cc(NC(=O)CNC(C)(C)C)c(O)c2c1C[C@H]1C[C@H]3[C@H](N(C)C)C(O)=C(C(N)=O)C(=O)[C@@]3(O)C(O)=C1C2=O` [Tigecycline, tigecycline], the “MICs against tetracycline resistant isolates relative to tetracycline susceptible isolates” value is “not notably altered”.
